Reference: ChEMBL document CHEMBL1201862, “PubChem BioAssay data set” (2004)
Activity calls are given as the source filed them.

Legend:
CAAX prenyl protease 2 = molecular target: T1, CAAX prenyl protease 2 (Saccharomyces cerevisiae S288c, UniProt Q03530); assay type: biochemical
T1 sequence (Q03530 whole entry): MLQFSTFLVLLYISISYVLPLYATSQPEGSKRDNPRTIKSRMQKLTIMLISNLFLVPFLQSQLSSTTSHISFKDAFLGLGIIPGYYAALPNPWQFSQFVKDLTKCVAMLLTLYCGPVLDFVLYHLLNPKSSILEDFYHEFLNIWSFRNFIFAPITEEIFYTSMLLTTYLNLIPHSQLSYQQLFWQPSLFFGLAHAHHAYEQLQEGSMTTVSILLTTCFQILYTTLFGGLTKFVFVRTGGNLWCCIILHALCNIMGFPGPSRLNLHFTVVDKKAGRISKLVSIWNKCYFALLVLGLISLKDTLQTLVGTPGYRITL

Trypsin = Trypsin (Sus scrofa, UniProt P00761); assay: trypsin protease activity blockade – biochemical, quenched peptide fluorescence, cherry-pick, selectivity assay for Rce1 protease inhibitor project, dose response (AID 488789)
[1] = Luminescence Cell-Based Dose Retest to Confirm Inhibitors of Cancer Stem Cells. [Related pubchem assays (depositor defined):AID2717, AID2721]; assay type: functional; conditions: Homo sapiens
Ion channel NompC = Ion channel NompC (Danio rerio, UniProt Q7T1G6); assay: Dose response cell-based high-throughput screening assay for agonists of the transient receptor potential channel N1 (TRPN1). [Related pubchem assays (depositor defined):AID1424, AID1448]; assay type: functional
Mucolipin-3 = molecular target: T2, Mucolipin-3 (Homo sapiens, UniProt Q8TDD5); assay: Fluorescence counterscreen assay for […] agonists: dose response cell-based high-throughput screening assay to identify agonists of the transient receptor potential channel ML3 (TRPML3). [Related pubchem assays: 1424, 1448 ]; assay type: functional
T2 sequence (Q8TDD5 whole entry): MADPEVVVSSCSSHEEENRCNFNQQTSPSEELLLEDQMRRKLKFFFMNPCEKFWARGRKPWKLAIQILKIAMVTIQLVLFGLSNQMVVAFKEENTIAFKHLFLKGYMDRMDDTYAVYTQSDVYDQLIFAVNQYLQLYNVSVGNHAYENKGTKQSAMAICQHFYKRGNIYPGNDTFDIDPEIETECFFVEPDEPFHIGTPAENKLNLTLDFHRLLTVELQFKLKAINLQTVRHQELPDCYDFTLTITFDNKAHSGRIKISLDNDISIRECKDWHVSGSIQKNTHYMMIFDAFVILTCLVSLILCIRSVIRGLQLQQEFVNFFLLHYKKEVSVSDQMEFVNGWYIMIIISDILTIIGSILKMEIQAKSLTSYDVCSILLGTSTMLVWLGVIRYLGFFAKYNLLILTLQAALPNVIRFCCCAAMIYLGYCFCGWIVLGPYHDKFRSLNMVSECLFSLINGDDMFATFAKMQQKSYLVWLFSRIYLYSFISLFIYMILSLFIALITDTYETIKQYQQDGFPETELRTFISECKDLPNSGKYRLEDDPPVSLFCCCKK

HEK293 [2] = assay: cells; assay type: functional, cell-based; conditions: Homo sapiens
HEK293 [3] = assay: inhibition of NOD1-driven NF-kB reporter – cell-based, luminescence, uHTS, primary screen (AID 1578); assay type: functional; conditions: Homo sapiens
HEK293 [4] = assay: cells; assay type: functional, cell-based; conditions: Homo sapiens; remark: listed apart in the source
[5] = molecular target: T3, Heat shock factor protein 1 (Mus musculus, UniProt P38532); assay: decrease of HSF1-responsive luciferase luminescence – cell-based, NIH3T3, dose retest, confirmation (AID 2382); assay type: functional;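 also: NIH3T3 fibroblasts with HSF1-driven luciferase reporter stressed by proteasome inhibitor MG132; luminescence from HSF1-driven luciferase expression after 8 hours of MG132 stress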
T3 sequence (P38532 whole entry): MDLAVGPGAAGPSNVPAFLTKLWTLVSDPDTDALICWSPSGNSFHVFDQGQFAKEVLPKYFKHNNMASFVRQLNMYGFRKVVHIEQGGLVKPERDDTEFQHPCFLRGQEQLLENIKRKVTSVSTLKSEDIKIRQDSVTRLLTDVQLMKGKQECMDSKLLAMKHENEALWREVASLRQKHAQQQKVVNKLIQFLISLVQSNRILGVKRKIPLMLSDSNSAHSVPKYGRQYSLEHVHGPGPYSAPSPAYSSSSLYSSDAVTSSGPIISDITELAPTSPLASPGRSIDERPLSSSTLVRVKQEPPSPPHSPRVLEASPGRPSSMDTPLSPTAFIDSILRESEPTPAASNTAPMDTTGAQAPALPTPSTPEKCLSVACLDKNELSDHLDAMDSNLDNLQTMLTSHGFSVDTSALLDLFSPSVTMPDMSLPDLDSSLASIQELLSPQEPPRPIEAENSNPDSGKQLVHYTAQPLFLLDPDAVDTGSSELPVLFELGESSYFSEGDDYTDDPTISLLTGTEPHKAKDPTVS

[6] = molecular target: Nucleotide-binding oligomerization domain-containing protein 2 (Homo sapiens, UniProt Q9HC29); assay: inhibition of NOD2-driven NF-kB reporter – cell-based, luminescence, uHTS, HEK293 (AID 1566); assay type: functional
HEK293 [7] = assay: NOD2 signaling inhibitors in MDP-stimulated cells, cell-based, uHTS, luminescence (AID 2001); assay type: functional; conditions: Homo sapiens
[8] = molecular target: T4, Alkaline phosphatase, tissue-nonspecific isozyme (Homo sapiens, UniProt P05186); assay: potency against alkaline phosphatase TNAP – biochemical, luminescent, dose response, SAR follow-up (AID 1056)
T4 sequence (P05186 whole entry): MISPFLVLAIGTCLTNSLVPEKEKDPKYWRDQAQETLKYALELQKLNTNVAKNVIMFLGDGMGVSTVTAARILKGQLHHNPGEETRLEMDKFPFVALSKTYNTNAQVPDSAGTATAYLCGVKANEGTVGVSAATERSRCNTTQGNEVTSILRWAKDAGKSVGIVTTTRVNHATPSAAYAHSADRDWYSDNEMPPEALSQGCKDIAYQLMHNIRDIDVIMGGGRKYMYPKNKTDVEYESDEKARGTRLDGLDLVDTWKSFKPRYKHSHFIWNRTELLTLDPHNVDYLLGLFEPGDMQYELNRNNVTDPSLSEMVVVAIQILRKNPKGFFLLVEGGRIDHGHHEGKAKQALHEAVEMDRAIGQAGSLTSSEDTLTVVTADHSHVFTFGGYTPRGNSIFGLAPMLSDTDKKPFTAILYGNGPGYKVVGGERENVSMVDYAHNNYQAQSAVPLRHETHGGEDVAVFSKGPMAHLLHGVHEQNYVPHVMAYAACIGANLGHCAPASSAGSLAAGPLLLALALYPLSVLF

[9] = molecular target: Glyceraldehyde-3-phosphate dehydrogenase (Homo sapiens, UniProt P04406)
Nonstructural protein 1 = Nonstructural protein 1 (Influenza A virus, UniProt Q194T2); assay type: functional, Influenza A virus (A/California/07/2009(H1N1))
[10] = molecular target: T5, Mannose-6-phosphate isomerase (Homo sapiens, UniProt P34949); assay: MPI inhibition at elevated mannose 6-phosphate – biochemical, fluorescence intensity, high mannose 6-phosphate, primary screen (AID 1220)
T5 sequence (P34949 whole entry): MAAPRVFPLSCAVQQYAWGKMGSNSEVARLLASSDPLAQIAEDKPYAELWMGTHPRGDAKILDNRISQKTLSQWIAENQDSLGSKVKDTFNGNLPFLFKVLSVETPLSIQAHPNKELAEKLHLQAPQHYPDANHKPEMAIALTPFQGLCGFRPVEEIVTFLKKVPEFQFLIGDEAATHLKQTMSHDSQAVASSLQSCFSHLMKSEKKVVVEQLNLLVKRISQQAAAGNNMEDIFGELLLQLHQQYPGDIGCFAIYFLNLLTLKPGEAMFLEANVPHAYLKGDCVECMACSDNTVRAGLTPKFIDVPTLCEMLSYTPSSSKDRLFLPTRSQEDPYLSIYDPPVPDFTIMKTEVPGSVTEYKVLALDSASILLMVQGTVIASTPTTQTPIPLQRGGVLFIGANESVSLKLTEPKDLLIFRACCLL

[11] = molecular target: T6, Polyadenylate-binding protein 1 (Homo sapiens, UniProt P11940); assay: MLLE binding blockers, Cy5 peptide tracer – biochemical, fluorescence polarization, Cy5-PAM2 peptide, secondary, miRNA deadenylation inhibitor project, dose response (AID 602260); assay type: functional; conditions: read-out: IC50_Mean
[12] = molecular target: Eukaryotic translation initiation factor 4E (Mus musculus, UniProt P63073); assay: blockers of eIF4G binding by eIF4E – biochemical, TR-FRET, dose response (AID 855); assay type: functional;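 also: potency for disrupting eIF4E binding to eIF4GI seen as loss of FRET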
Estrogen receptor beta = Estrogen receptor beta (Homo sapiens, UniProt Q92731); assay: blockers of SRC-3 recruitment to ERβ – biochemical, ELISA, streptavidin-HRP readout, orthogonal assay, confirmation (AID 1060)
[13] = molecular target: T6, Polyadenylate-binding protein 1; assay: MLLE domain peptide-binding blockers, IC50 – biochemical, fluorescence polarization, FITC-PAM2 peptide, dose response (AID 602259); assay type: functional; conditions: read-out: IC50_Mean
Hexokinase HKDC1 = molecular target: T7, Hexokinase HKDC1 (Homo sapiens, UniProt Q2TB90); assay: inhibition of HKDC1 glucose phosphorylation – biochemical, W721R variant, dose response (AID 504729); assay type: functional
T7 sequence (Q2TB90 whole entry): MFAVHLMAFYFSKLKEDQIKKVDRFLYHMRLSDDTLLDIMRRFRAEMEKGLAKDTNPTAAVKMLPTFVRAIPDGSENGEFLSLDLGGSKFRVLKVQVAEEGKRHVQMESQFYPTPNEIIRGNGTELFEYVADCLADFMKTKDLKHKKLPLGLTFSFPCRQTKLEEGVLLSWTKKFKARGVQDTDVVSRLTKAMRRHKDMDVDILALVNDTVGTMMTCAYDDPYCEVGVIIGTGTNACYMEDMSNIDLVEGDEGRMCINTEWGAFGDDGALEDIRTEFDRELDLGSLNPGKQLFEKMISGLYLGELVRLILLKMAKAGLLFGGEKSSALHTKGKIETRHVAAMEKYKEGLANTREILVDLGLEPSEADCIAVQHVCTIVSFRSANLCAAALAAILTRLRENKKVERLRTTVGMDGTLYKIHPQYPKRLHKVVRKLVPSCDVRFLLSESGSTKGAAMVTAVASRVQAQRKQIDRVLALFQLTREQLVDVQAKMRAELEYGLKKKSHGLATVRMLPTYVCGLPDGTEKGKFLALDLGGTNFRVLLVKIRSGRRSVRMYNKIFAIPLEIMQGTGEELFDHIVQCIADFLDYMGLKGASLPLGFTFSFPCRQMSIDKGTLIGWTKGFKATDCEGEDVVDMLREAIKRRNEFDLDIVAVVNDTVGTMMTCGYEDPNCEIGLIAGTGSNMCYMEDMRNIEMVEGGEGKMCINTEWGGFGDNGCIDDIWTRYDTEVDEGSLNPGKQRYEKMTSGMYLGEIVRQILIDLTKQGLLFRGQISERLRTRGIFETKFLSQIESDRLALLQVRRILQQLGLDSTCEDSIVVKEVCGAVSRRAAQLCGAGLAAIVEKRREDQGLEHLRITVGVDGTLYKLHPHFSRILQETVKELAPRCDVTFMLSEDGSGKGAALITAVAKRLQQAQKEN

T6 sequence (P11940 whole entry): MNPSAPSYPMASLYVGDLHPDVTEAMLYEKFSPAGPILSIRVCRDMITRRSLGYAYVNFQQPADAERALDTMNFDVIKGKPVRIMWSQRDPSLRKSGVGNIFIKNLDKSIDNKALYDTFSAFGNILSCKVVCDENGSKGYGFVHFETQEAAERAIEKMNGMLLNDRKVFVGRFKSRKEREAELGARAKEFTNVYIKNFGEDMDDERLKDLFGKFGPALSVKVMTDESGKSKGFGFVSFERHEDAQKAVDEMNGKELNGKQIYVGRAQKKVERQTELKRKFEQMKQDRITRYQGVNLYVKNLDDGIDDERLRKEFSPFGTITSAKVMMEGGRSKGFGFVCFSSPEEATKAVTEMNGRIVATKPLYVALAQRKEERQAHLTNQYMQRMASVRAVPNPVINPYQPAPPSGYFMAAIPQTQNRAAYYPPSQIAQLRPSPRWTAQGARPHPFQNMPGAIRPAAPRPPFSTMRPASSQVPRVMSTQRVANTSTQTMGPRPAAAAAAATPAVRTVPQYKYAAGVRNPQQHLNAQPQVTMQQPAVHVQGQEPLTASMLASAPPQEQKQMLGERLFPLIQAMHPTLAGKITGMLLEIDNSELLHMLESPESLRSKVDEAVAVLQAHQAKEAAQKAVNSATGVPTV
Glyceraldehyde-3-phosphate dehydrogenase, sequence (P04406 whole entry): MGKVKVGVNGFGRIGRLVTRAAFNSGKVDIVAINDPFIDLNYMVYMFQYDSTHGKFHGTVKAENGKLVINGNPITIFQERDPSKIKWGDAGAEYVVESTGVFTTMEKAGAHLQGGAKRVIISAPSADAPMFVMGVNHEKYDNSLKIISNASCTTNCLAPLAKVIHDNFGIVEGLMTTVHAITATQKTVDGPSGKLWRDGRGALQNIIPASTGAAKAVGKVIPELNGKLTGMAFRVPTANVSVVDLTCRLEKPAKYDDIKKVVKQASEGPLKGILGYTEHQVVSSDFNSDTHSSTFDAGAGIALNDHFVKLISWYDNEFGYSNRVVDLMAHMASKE
Ion channel NompC, sequence (Q7T1G6 whole entry): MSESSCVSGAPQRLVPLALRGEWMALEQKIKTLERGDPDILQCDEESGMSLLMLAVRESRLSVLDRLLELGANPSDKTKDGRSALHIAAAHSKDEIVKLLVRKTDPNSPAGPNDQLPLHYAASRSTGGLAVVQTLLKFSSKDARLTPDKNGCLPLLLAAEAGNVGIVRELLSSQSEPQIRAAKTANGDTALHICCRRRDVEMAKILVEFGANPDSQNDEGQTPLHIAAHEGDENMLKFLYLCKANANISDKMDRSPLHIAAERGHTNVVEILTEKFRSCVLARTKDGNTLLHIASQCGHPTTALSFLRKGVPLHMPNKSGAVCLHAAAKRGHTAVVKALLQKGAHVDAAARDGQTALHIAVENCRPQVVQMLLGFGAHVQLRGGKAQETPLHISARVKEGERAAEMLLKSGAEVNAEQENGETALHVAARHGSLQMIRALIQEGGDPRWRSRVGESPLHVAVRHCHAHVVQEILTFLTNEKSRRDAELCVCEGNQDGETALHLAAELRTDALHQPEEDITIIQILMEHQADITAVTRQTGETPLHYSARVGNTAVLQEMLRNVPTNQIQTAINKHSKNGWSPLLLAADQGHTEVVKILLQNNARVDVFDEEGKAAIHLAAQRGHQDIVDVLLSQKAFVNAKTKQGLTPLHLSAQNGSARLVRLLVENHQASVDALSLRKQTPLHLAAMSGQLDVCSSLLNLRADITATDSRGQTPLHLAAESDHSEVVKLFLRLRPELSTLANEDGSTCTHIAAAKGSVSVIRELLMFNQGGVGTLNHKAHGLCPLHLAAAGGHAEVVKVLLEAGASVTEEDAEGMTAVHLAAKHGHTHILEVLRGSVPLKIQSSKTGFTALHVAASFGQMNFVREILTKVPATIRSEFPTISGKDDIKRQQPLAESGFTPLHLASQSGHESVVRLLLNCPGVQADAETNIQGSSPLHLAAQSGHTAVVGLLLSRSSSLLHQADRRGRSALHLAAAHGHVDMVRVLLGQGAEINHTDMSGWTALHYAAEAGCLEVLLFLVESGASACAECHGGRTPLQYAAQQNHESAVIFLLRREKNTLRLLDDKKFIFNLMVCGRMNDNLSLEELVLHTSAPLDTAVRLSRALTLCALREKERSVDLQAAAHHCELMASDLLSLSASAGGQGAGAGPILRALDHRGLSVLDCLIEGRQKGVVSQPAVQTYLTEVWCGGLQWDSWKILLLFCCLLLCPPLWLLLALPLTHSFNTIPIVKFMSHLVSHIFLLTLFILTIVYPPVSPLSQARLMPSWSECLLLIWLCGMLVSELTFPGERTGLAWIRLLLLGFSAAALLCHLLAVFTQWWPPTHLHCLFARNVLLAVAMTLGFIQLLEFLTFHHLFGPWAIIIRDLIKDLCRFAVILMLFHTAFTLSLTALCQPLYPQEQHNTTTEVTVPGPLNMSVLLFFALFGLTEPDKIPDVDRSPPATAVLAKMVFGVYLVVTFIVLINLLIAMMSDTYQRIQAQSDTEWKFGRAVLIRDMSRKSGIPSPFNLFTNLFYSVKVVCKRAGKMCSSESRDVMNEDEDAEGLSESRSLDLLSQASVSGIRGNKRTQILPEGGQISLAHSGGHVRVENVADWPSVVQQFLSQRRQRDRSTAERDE
Eukaryotic translation initiation factor 4E, sequence (P63073 whole entry): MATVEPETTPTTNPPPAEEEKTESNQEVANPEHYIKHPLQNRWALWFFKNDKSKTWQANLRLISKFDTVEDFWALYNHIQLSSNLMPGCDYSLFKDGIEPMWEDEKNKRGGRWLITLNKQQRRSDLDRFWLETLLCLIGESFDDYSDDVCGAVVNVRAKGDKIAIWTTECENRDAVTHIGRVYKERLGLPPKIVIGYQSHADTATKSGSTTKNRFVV
Nonstructural protein 1, sequence (Q194T2 whole entry): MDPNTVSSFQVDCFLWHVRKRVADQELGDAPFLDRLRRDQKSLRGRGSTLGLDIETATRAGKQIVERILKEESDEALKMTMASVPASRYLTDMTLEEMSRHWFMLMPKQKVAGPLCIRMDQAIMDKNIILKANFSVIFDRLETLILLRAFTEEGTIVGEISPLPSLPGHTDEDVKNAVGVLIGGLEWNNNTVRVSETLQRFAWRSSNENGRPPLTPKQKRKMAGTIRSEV
Estrogen receptor beta, sequence (Q92731 whole entry, the tested form may be a part): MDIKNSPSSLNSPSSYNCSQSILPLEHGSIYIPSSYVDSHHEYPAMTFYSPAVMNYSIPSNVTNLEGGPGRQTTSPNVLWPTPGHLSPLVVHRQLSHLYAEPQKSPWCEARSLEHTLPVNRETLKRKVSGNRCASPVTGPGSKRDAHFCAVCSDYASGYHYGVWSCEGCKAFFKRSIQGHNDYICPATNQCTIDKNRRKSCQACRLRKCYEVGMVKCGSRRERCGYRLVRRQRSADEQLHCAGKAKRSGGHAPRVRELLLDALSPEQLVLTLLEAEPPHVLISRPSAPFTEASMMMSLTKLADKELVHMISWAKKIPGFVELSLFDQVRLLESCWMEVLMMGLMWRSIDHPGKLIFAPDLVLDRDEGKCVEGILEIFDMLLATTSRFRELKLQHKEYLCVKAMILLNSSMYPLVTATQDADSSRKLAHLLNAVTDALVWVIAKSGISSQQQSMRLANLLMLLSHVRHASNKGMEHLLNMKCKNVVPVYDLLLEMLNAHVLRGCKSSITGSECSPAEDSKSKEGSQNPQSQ
Trypsin, sequence (P00761 whole entry): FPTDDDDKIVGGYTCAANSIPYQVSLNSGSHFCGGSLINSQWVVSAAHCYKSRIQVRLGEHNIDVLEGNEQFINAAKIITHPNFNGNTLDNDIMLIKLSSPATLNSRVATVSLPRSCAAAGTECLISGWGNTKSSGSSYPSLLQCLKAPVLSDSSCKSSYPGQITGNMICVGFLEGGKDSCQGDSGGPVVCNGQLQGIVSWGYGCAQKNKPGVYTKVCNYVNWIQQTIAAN
Nucleotide-binding oligomerization domain-containing protein 2, sequence (Q9HC29 whole entry, the tested form may be a part): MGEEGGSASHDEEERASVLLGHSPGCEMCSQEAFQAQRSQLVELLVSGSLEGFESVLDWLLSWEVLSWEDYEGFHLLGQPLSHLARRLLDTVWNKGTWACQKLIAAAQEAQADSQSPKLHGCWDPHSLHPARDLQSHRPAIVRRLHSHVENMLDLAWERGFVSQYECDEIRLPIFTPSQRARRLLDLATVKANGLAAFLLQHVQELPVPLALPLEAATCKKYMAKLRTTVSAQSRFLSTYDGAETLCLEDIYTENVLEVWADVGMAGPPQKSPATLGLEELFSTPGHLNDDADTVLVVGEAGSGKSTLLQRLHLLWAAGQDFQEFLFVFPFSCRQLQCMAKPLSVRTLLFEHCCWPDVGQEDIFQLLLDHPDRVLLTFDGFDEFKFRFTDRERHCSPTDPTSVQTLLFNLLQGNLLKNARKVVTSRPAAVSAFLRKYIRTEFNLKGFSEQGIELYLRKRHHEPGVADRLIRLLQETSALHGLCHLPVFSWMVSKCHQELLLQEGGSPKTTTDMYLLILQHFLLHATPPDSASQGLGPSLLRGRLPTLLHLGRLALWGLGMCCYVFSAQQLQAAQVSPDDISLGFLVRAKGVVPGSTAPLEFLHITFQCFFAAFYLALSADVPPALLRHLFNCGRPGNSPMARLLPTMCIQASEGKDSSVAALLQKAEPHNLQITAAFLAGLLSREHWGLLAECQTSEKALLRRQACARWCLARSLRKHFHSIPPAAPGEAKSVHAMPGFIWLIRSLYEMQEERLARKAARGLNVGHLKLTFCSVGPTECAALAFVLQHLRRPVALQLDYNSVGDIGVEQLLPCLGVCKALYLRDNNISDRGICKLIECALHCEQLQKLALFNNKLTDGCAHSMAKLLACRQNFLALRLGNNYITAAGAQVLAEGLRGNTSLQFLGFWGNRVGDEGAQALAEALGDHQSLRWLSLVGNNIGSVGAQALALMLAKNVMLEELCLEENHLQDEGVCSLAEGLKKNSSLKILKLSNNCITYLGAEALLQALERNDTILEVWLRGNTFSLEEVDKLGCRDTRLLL

With CS(=O)(=O)Nc1ccccc1C(=O)Nc1cccc(Cl)c1 the AC50 (CAAX prenyl protease 2) was 21.8 µM (active), the AC50 (Trypsin) was 6.73 µM (active) and the AC50 [1] was 45.2 µM (active).
In the case of O=[N+]([O-])c1ccc(Oc2ccc(S(=O)(=O)Nc3ccccc3)cc2)cc1, the EC50 (Ion channel NompC) is reported as > 29.9 µM (inactive) and the EC50 (Mucolipin-3) is reported as > 29.9 µM (not active).
For CCOc1ccccc1-n1c(SCC(=O)Nc2ccccc2C(=O)O)nc2ccccc2c1=O, the IC50 (HEK293 [2]) was > 20 µM (inactive), the EC50 (HEK293 [3]) was > 20 µM (inactive) and the IC50 (HEK293 [4]) was > 20 µM (inactive). The EC50 [5] was 4.46 µM (active), the EC50 [6] was > 20 µM (inactive) and the IC50 (HEK293 [7]) was > 20 µM (inactive).
For COc1ccc(Br)cc1S(=O)(=O)n1cc(C(N)=O)c2ccccc21, the IC50 [8] was > 100 µM (inactive) and the IC50 [9] was > 100 µM (not active).
For CCOC(=O)N1CCN(C(c2cccnc2)c2ccc3cccnc3c2O)CC1 (stereo not given), the IC50 (Nonstructural protein 1) was 14.6 µM (active), the IC50 [10] was 32 µM (active) and the IC50 [11] was > 66 µM (inactive). For the same molecule, the IC50 [12] was > 64 µM (inactive), the IC50 (Estrogen receptor beta) was 10.6 µM (not active) and the IC50 [13] was > 66 µM (inactive).
For CC(C)c1nc2oc3c(O)ncnc3c2c2c1COC(C)(C)C2, the IC50 (Hexokinase HKDC1) was 8.22 µM (active).
